Entries after “also recorded” stand apart in the source; their conditions may differ. Counter-ions that a name gives are not always drawn.

The subject of one data set is HL-60 cells. The experiment in a line: alamarBlue cell viability assay, HL-60. The settings on record: Homo sapiens, HL-60, 72 h, alamarBlue, 72 h; read-out: HL-60 IC50 ± SEM. It counts as cell-based. From the text: Cell viability and proliferation assays were used to evaluate the in vitro cytotoxicity of all synthesised compounds in a variety of different cancer cell lines using the alamarBlue® viability assay and the results are presented in Table 1 and Table 2. The sensitivity of cancer cells to drugs can often be compromised by PIK3CA, Ras and BRAF mutations. To determine whether such mutations are critical to the efficacy of our new compounds we tested them in a range of cancerous cell lines expressing different mutations. Firstly, we used the HL-60 (human promyelocytic leukaemia, NRas mutated) cell line for general cytotoxicity screening of all compounds. […] Lastly, toxicity against MCF-10A, which is a non-tumorigenic epithelial cell line, was also assessed for one of the most promising compounds (4). The graphs representing the viability results with the HL-60, MCF-7, HeLa, HCT-116, and HKH-2 cancer cell lines for compound 1 and derivatives 2, 3, and 4 are shown in Figures S7–S10 (ESI).
Cells were counted and seeded in 96-well plates at a density of 2 × 10^5 cells/mL for HL-60, 2.5 × 10^4 cells/mL for MCF-7, MCF10A and HeLa, 1 × 10^5 cells/mL for HCT116 and HKH-2, all of them in their respective media. The 96-well plates were then treated with a 1:100 dilution of stock concentrations of drugs or EtOH (1% v/v)/DMSO (0.1% v/v) as vehicle control in triplicate. Three blank wells containing 200 µL RPMI with no cells were also set-up as blanks. After a 72 h incubation, 20 µL of alamarBlue was added to each well. The plates were incubated in darkness at 37 °C for 4–5 h using a Molecular Devices microplate reader, the fluorescence (F) was then read at an excitation wavelength of 544 nm and an emission wavelength of 590 nm. Cell viability was then determined by subtracting the mean blank fluorescence (Fb) from the treated sample fluorescence (Fs) and expressing this as a percentage of the fluorescence of the blanked vehicle control (Fc). […] The results were then plotted as a nonlinear regression, sigmoidal dose-response curves on Prism, from which the IC50 value for each drug was determined. […]
Pharmacy, TCD. It was maintained in Roswell Park Memorial Institute (RPMI) 1640 medium with stable glutamate (GlutaMax I) supplemented with 10% (v/v) fetal bovine serum (FBS), 1% (v/v) penicillin/ streptomycin (pen-strep) and 2 mM L-glutamine. […]
4.4. AlamarBlue ® Cell Viability Assay
Cells were counted and seeded in 96 well plates at a density of 2 × 10^5 cells/mL for HL-60, 2.5× 10^4 cells/mL for MCF-7, MCF10A and HeLa, 1 × 10^5 cells/mL for HCT116 and HKH-2, all of them in their respective media. The 96 well plates were then treated with a 1:100 dilution of stock concentrations of drugs or EtOH (1% v/v)/DMSO (0.1% v/v) as vehicle control in triplicate.
Three blank wells containing 200 µL media with no cells were also set-up as blanks. After a 72 h incubation, 20 µL of AlamarBlue was added to each well. The plates were incubated in darkness at 37 °C for 4-5 h. Using a Molecular Devices microplate reader, the fluorescence (F) was then read at an excitation wavelength of 544 nm and an emission wavelength of 590 nm.
Cell viability was then determined by subtracting the mean blank fluorescence (Fb) from the treated sample fluorescence (Fs) and expressing this as a percentage of the fluorescence of the blanked vehicle control (Fc). […] The results were […]
then plotted as a nonlinear regression, sigmoidal dose-response curves on Prism, from which the IC50 value for each drug was determined.
Fs − Fb x 100 = % Cell Viability
60 cell line in a dose-dependent manner.
(1 picture or pasted object on this page, not shown here)

In data set [1] the test system is ERK phosphorylation (MAPK/ERK pathway). The experiment in a line: Western immunoblot of ERK phosphorylation in HL-60 extracts. It counts as cell-based, human. The settings on record: HL-60, 5 µM, 16 h. The procedure: Thus, using Western immunoblot analysis of HL-60 extracts, we investigated the expression and phosphorylation levels of ERK (as an indication of ERK activation), which is the downstream effector of the Ras/BRAF signalling pathway (Figure 6).
HL60s were seeded in T25 flasks at 50 × 10^4 cells/mL and cells were treated with either vehicle [0.5% EtOH (v/v)], 1–4, 9 or 52 (5 µM), as well as 1 (10 µM as reported). After 16 h, cells were collected and washed with PBS. Cell pellets were re-suspended in cold cell lysis buffer (radio-immunoprecipitation assay buffer) supplemented with 1% phosphatase inhibitor cocktail 2 and 3 (Sigma) and 10% protease inhibitor (Roche). Cells were lysed for 30 min on ice. Protein concentration was then determined by BCA assay. Lysates were boiled with Laemmli sample buffer [Tris-HCL 50 mM (pH 6.7), glycerol 10% (w/v), sodium dodecyl sulphate 2% (w/v), bromophenol blue 0.02% (w/v)] containing DTT […] for 10 min at 90 °C. Moreover, 20 µg of lysates were resolved by sodium dodecyl sulphate polyacrylamide gel electrophoresis (SDS-PAGE) and transferred onto PVDF transfer membrane (EMD Millipore). Membranes were blocked with 5% non-fat milk and probed with primary antibodies for ERK and phospho-ERK (Cell Signalling). Anti-GAPDH was used as a loading control (Calbiochem).
Figure 6 Western immunoblot of HL-60 cell extracts following incubation with compounds 2, 3, 4, 9, 52 and 1 (as a control). HL60 cells were seeded at 2 × 10^5 cells/mL and were treated with either vehicle [0.5% EtOH (v/v)], compounds 52, 2, 9, 3 and 4 (5 µM) or compound 1 (5 and (*) 10 µM, as in reference) for 16 h. Cells were lysed and equal amounts of protein were loaded and separated on 15% SDS-PAGE gels, transferred to PVDF membrane and probed with antibodies against total and phosphorylated ERK. Anti-GAPDH was used as a loading control. Results are representative of 2 independent experiments.
HL-60 cells were seeded in T25 flasks at 50 x10^4 cells/mL and treated with either vehicle [0.5% […]
After 16 hours, cells were […]
collected and washed with PBS. Cell pellets were re-suspended in cold cell lysis buffer (radio-immunoprecipitation assay buffer) supplemented with 1% phosphatase inhibitor cocktail 2 and 3 (Sigma) and 10% protease inhibitor (Roche). Cells were lysed for 30 minutes on ice.
Protein concentration was then determined by BCA assay. Lysates were boiled with laemmli sample buffer [Tris-HCL 50 mM (pH 6.7), glycerol 10% (w/v), sodium dodecyl sulphate 2% (w/v), bromophenol blue 0.02% (w/v)] containing DTT […] for 10 min. at 90 °C. Also 20 µg of lysates were resolved by sodium dodecyl sulphate polyacrylamide gel electrophoresis (SDS - PAGE) and transferred onto PVDF transfer membrane (EMD Millipore). Membranes were blocked with 5% non-fat milk and probed with primary antibodies for ERK and phospho-ERK (Cell Signaling). Anti-GAPDH was used as a loading control (Calbiochem).

By melting point is commonly meant the temperature of the solid-liquid transition. Take `N=C(N)Nc1ccc(Oc2cc(F)cc(Nc3ccc(Cl)c(C(F)(F)F)c3)c2)cc1` (as salt: hydrochloride) [Compound 36, 1-(4-(3-((4-Chloro-3-(trifluormethyl)phenyl)amino)-5-fluorophenoxy)phenyl)guanidine hydrochloride]: the melting point was in the range of 92 to 94 °C. For orientation: IC50 means the midpoint of a concentration-inhibition curve. In turn, `Cl.N=C(N)Nc1ccc(Oc2cccc(Nc3cccc(S(F)(F)(F)(F)F)c3)c2)cc1` [Compound 30, 1-(4-(3-((3-(Pentafluorosulfanyl)phenyl)amino)phenoxy)phenyl)guanidine hydrochloride] registered a melting point of 104 to 106 °C. The 50% inhibitory concentration (IC50) in the data set with HL-60 cells turned out to be 3.23 ± 0.36 µM.

`Cl.N=C(N)Nc1ccc(Oc2cccc(Nc3cccc(C(F)(F)F)c3)c2)cc1` [Compound 29, 1-(4-(3-((3-(Trifluoromethyl)phenyl)amino)phenoxy)phenyl)guanidine hydrochloride] gave a melting point of 93 to 95 °C. The IC50 in the data set with HL-60 cells came out at 4.64 ± 0.83 µM. In the case of `N=C(N)Nc1ccc(Oc2cccc(NC(=N)Nc3ccc(Br)cc3)c2)cn1` [Compound 51, 1-(4-Bromophenyl)-3-(3-((6-guanidinopyridin-3-yl)oxy)phenyl)guanidine dihydrochloride], the concentration for half-maximal inhibition (IC50) in the data set with HL-60 cells amounted to 9.37 ± 0.54 µM.

On to `N=C(N)Nc1cccc(Oc2ccc(N=C(N)Nc3ccc(I)cc3F)cc2)c1` [Compound 10, 1-(2-Fluoro-4-iodophenyl)-2-(4-(3-guanidinophenoxy)phenyl)guanidine dihydrochloride], for which the IC50 with HL-60 cells was found to be 8.85 ± 0.55 µM. Take `N=C(N)Nc1ccc(Oc2cccc(NC(=N)Nc3ccc(F)c(F)c3)c2)cn1` [Compound 49, 1-(3,4-Di-fluorophenyl)-3-(3-((6-guanidinopyridin-3-yl)oxy)phenyl)guanidine dihydrochloride]: in the data set on HL-60 cells, the concentration for half-maximal inhibition (IC50) stood at 11.6 ± 0.27 µM.

Turning to `N=C(N)Nc1ccc(Oc2cccc(N=C(N)Nc3ccc(I)cc3F)c2)cc1` [Compound 7, 1-(2-Fluoro-4-iodophenyl)-2-(3-(4-guanidinophenoxy)phenyl)guanidine dihydrochloride], the IC50 in the data set with HL-60 cells was determined as 8.63 ± 0.51 µM.

For the molecule `Cl.Cl.N=C(N)Nc1ccc(Oc2cccc(NC(=N)Nc3ccc(Br)c(C(F)(F)F)c3)c2)cn1` [Compound 52, 1-(4-Bromo-3-(trifluoromethyl)phenyl)-3-(3-((6-guanidinopyridin-3-yl)oxy)phenyl) guanidine dihydrochloride], in the data set on HL-60 cells, the half-inhibitory concentration (IC50) is 1.53 ± 0.23 µM. For the same molecule, the “effect on ERK phosphorylation (Ras/BRAF pathway)” value in data set [1] was “inhibiting ERK phosphorylation; also recorded: abrogates ERK activation”. With `Cl.Cl.N=C(N)Nc1ccc(Oc2cccc(N=C(N)Nc3ccc(Br)c(C(F)(F)F)c3)c2)cc1` [Compound 9, 1-(4-Bromo-3-(trifluoromethyl)phenyl)-2-(3-(4-guanidinophenoxy)phenyl)guanidine dihydrochloride], the IC50 in the data set with HL-60 cells was found to be 2.07 ± 0.33 µM. Also, the “effect on ERK phosphorylation (Ras/BRAF pathway)” value in data set [1] is “inhibiting ERK phosphorylation; also recorded: abrogates ERK activation”. As for `N=C(N)Nc1cccc(Oc2ccc(N=C(N)Nc3ccc(Br)c(C(F)(F)F)c3)cc2)c1` [Compound 11, 1-(4-Bromo-3-(trifluoromethyl)phenyl)-2-(4-(3-guanidinophenoxy)phenyl)guanidine dihydrochloride], the IC50 with HL-60 cells amounted to 11 ± 0.64 µM.

In the case of `N=C(N)Nc1ccc(Oc2cccc(NC(=N)Nc3ccc(I)cc3F)c2)cn1` [Compound 50, 1-(2-Fluoro-4-iodophenyl)-3-(3-((6-guanidinopyridin-3-yl)oxy)phenyl)guanidine dihydrochloride], the half-inhibitory concentration (IC50) with HL-60 cells came to 8.33 ± 0.32 µM. Same read-out and setting: then `N=C(N)Nc1ccc(Oc2cc(F)cc(Nc3ccc(Cl)c(C(F)(F)F)c3)c2)cc1` [Compound 36, 1-(4-(3-((4-Chloro-3-(trifluormethyl)phenyl)amino)-5-fluorophenoxy)phenyl)guanidine hydrochloride], with 4.07 ± 0.1 µM. `NS(=O)(=O)Nc1ccc(Oc2cccc(Nc3ccc(Cl)c(C(F)(F)F)c3)c2)cc1` [Compound 75]: the melting point was in the range of 124 to 126 °C. Further, the IC50 with HL-60 cells is 9.14 ± 0.69 µM. For the molecule `N=C(N)Nc1ccc(Oc2cccc(N=C(N)Nc3ccc(F)cc3)c2)cc1` [Compound 5, 1-(4-Fluorophenyl)-2-(3-(4-guanidinophenoxy)phenyl)guanidine dihydrochloride], the IC50 with HL-60 cells is more than 100 µM. On to `N=C(N)Nc1ccc(Oc2cccc(NC(=N)Nc3ccc(F)c(F)c3)c2)cc1` (as salt: hydrochloride) [Compound 6, 1-(3:4-Di-fluorophenyl)-2-(3-(4-guanidinophenoxy)phenyl)guanidine dihydrochloride], for which the melting point was in the range of 158 to 160 °C. On to `N=C(N)Nc1ccc(Oc2cccc(N=C(N)Nc3ccc(Br)cc3)c2)cc1` [Compound 8, 1-(4-Bromophenyl)-2-(3-(4-guanidinophenoxy)phenyl)guanidine dihydrochloride], for which, in the data set on HL-60 cells, the concentration for half-maximal inhibition (IC50) stood at 15.3 ± 1.98 µM. For `N=C(N)Nc1ccc(Oc2cccc(NC(=N)Nc3ccc(F)c(F)c3)c2)cc1` [Compound 6, 1-(3:4-Di-fluorophenyl)-2-(3-(4-guanidinophenoxy)phenyl)guanidine dihydrochloride], the IC50 in the data set with HL-60 cells was more than 100 µM. With `Cl.N=C(N)Nc1ccc(Oc2cccc(Nc3ccc(Cl)cc3)c2)cc1` [Compound 28, 1-(4-(3-((4-Chlorophenyl)amino)phenoxy)phenyl)guanidine hydrochloride], the melting point fell in the range of 50 to 52 °C. Also, in the data set on HL-60 cells, the IC50 is 7.5 ± 0.05 µM.

The values above are taken from paper PMC7767381, “Exploring the Anti-Cancer Mechanism of Novel 3,4′-Substituted Diaryl Guanidinium Derivatives” (Pharmaceuticals, 2020).
